Holding throughout (format): cell-based
For data set [1], the system named is MT-4 cells. The experiment in a line: Cytotoxicity assay in MT-4 cells. The following applies: uninfected MT-4 cells, 5 days, Cell Titer Glo; read-out: CC50. Summed up: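 Uninfected MT-4 cells were incubated with 1:3 serially diluted compound in RPMI/10% FBS for 5 days at 37° C. Viability was read by CellTiter-Glo luminescence, with 10 μM puromycin as the baseline cytotoxicity control. Values are the concentration giving a 50% decrease in luminescence, from sigmoidal dose-response fits.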
(In general: Cellular ATP, detected with luciferase, serves as a proxy for viable cell number.)

In data set [2] the test system is HIV-1 (IIIB). In words: Antiviral assay in MT-4 cells. The following applies: HIV-1 IIIB infected MT-4 cells, 5 days, Cell Titer Glo, read-out: MT4 EC50. An outline of the steps: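 MT-4 cells infected with a 1:250 dilution of HIV-1 IIIB stock were incubated with serially diluted (1:3) compound for 5 days at 37 °C. Viability read by Cell Titer Glo luminescence; EC50 is the concentration giving 50% decrease in signal, from sigmoidal dose-response fits.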

For data set [3], the system named is pLai RLuc reporter virus. In words: HIV MT-4 serum shift antiviral reporter assay. Summed up:
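MT-4 cells pre-infected with pLai RLuc virus for 2 h at 37 °C, then incubated 72 h at 37 °C with compound in medium (RPMI, 10% FBS) with or without 50% human serum; Renilla luminescence read. EC50 from sigmoidal fit; serum shift = EC50(HS/CCM)/EC50(CCM).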
(In general: A reporter such as luciferase makes a cellular process visible.)

Setting [4] is: HS/CCM: 50% human serum, 72 h, Renilla Glo, read-out: RLUC 50% HS.
Where [5] appears, read: cell culture media (RPMI, 10% FBS), 72 h, Renilla Glo, read-out: RLUC CCM.
The mark [6] stands for this setting: Human immunodeficiency virus 1, IIIB, MT4, 120 h.
The mark [7] stands for this setting: read-out: RLUC 50% HS, HS/CCM: 50% human serum, 72 h, Renilla Glo.
The mark [8] stands for this setting: read-out: RLUC CCM, cell culture media (RPMI, 10% FBS), 72 h, Renilla Glo.

Like-named read-outs stand apart in the source and are kept apart here.

Consider 17 compounds from patent publication US11613546B2, “Substituted pyridotriazine compounds and uses thereof” (Gilead Sciences, Inc., priority 2021, dated 2023).

What is called CC50 is the concentration at which the toxic effect on the cells reaches its halfway point. Turning to `O=C(NCc1c(F)cc(F)cc1F)c1cn2c(c(O)c1=O)C(=O)N1Cc3ccc(F)cc3CN2C1` [Example C4, (6S)-9-fluoro-1-hydroxy-2,14-dioxo-N-(2,4,6-trifluorobenzyl)-2,7,12,14-tetrahydro-6,13-methanobenzo[g]pyrido[1,2-b][1,2,5]triazonine-3-carboxamide], in data set [1], the CC50 was determined as 12000 nM. The EC50 in data set [2] came out at 1.2 nM; in data set [3] (setting [4]), 6.08 nM; in data set [3] (setting [5]), 0.54 nM.

As for `C[C@@H]1C/C=C\[C@H](C)N2CN1n1cc(C(=O)NCc3c(F)cc(F)cc3F)c(=O)c(O)c1C2=O` [Example C7, (1S,2R,6S,Z)-9-hydroxy-2,6-dimethyl-8,10-dioxo-N-(2,4,6-trifluorobenzyl)-3,6,8,10-tetrahydro-2H-1,7-methanopyrido[1,2-b][1,2,5]triazecine-11-carboxamide], the CC50 in data set [1] stood at 9190 nM. Also, the EC50 came to 2.1 nM in data set [2], 172 nM in data set [3] (setting [4]) and 0.35 nM in data set [3] (setting [5]).

On to `C[C@@H]1CCC[C@H](C)N2CN1n1cc(C(=O)NCc3c(F)cc(F)cc3F)c(=O)c(O)c1C2=O` [Example C8, (1S,2R,6S)-9-hydroxy-2,6-dimethyl-8,10-dioxo-N-(2,4,6-trifluorobenzyl)-3,4,5,6,8,10-hexahydro-2H-1,7-methanopyrido[1,2-b][1,2,5]triazecine-11-carboxamide], for which the 50% cytotoxic concentration (CC50) in data set [1] was 4720 nM. Further, the EC50 worked out at 1.8 nM in data set [2] (setting [6]), 16.4 nM in data set [3] (setting [7]) and 0.55 nM in data set [3] (setting [8]).

In the case of `C[C@@H]1C/C=C\CN2CN1n1cc(C(=O)NCc3ccc(F)cc3F)c(=O)c(O)c1C2=O` [Example C10, (1R,2R,Z)—N-(2,4-difluorobenzyl)-9-hydroxy-2-methyl-8,10-dioxo-3,6,8,10-tetrahydro-2H-1,7-methanopyrido[1,2-b][1,2,5]triazecine-11-carboxamide], in data set [1], the cytotoxic concentration (CC50) worked out at 7570 nM. Moreover, the values for the EC50 in data set [2], in data set [3] (setting [4]) and in data set [3] (setting [5]) were 1.8 nM, 339 nM and 0.4 nM, respectively.

Consider `C[C@@H]1C/C=C\CN2CN1n1cc(C(=O)NCc3ccc(F)cc3F)c(=O)c(O)c1C2=O` [Example C11, (1S,2R,Z)—N-(2,4-difluorobenzyl)-9-hydroxy-2-methyl-8,10-dioxo-3,6,8,10-tetrahydro-2H-1,7-methanopyrido[1,2-b][1,2,5]triazecine-11-carboxamide], for which, in data set [1], the 50% cytotoxic concentration (CC50) stood at 9930 nM. Besides, the results for the EC50 in data set [2], in data set [3] (setting [4]) and in data set [3] (setting [5]) were 1.1 nM, 7.32 nM and 0.27 nM, respectively.

On to `C[C@@H]1CCC[C@H](C)N2CN1n1cc(C(=O)NCc3c(F)cc(F)cc3F)c(=O)c(O)c1C2=O` [Example C14, (1R,2S,6R)-9-hydroxy-2,6-dimethyl-8,10-dioxo-N-(2,4,6-trifluorobenzyl)-3,4,5,6,8,10-hexahydro-2H-1,7-methanopyrido[1,2-b][1,2,5]triazecine-11-carboxamide], for which the CC50 in data set [1] turned out to be 8060 nM. The values for the EC50 in data set [2], in data set [3] (setting [7]) and in data set [3] (setting [8]) were 2 nM, 31.1 nM and 0.71 nM, respectively.

For the compound `C[C@H]1/C=C\C[C@H](C)N2CN1C(=O)c1c(O)c(=O)c(C(=O)NCc3c(F)cc(F)cc3F)cn12` [Example C19, (1R,2S,6S,Z)-9-hydroxy-2,6-dimethyl-8,10-dioxo-N-(2,4,6-trifluorobenzyl)-3,6,8,10-tetrahydro-2H-1,7-methanopyrido[1,2-b][1,2,5]triazecine-11-carboxamide], the CC50 in data set [1] came out at 10200 nM. Moreover, the EC50 was 1.1 nM in data set [2], 60.3 nM in data set [3] (setting [4]) and 0.41 nM in data set [3] (setting [5]).

As for `C[C@@H]1CCC[C@H](C)N2CN1n1cc(C(=O)NCc3c(F)cc(F)cc3F)c(=O)c(O)c1C2=O` [Example C21, (1R,2S,6S)-9-hydroxy-2,6-dimethyl-8,10-dioxo-N-(2,4,6-trifluorobenzyl)-3,4,5,6,8,10-hexahydro-2H-1,7-methanopyrido[1,2-b][1,2,5]triazecine-11-carboxamide], the half-maximal cytotoxic concentration (CC50) in data set [1] was found to be 11700 nM. In addition, the EC50 was determined as 1.7 nM in data set [2], 98.1 nM in data set [3] (setting [7]) and 0.23 nM in data set [3] (setting [8]).

As for `C[C@H]1CCC[C@H](C)N2CN1C(=O)c1c(O)c(=O)c(C(=O)NCc3c(F)cc(F)cc3F)cn12` [Example C23, (1S,2S,6S)-9-hydroxy-2,6-dimethyl-8,10-dioxo-N-(2,4,6-trifluorobenzyl)-3,4,5,6,8,10-hexahydro-2H-1,7-methanopyrido[1,2-b][1,2,5]triazecine-11-carboxamide], the half-maximal cytotoxic concentration (CC50) in data set [1] worked out at 50000 nM. Further, the EC50 in data set [2] (setting [6]) was 2.5 nM; in data set [3] (Human immunodeficiency virus 1, 72 h, read-out: RLUC 50% HS (nM), HS/CCM: 50% human serum, 72 h, Renilla Glo), 14.5 nM; in data set [3] (Human immunodeficiency virus 1, 72 h, read-out: RLUC CCM (nM), cell culture media (RPMI, 10% FBS), 72 h, Renilla Glo) it was 0.29 nM.

Regarding `C[C@H]1C=C[C@H](C)N2CN1C(=O)c1c(O)c(=O)c(C(=O)NCc3c(F)cc(F)cc3F)cn12` [Example C26, (1R,2S,5S)-8-hydroxy-2,5-dimethyl-7,9-dioxo-N-(2,4,6-trifluorobenzyl)-2,5,7,9-tetrahydro-1,6-methanopyrido[1,2-b][1,2,5]triazonine-10-carboxamide], in data set [1], the CC50 was determined as 28100 nM. The EC50 was found to be 2.4 nM in data set [2], 349 nM in data set [3] (setting [7]) and 0.63 nM in data set [3] (setting [8]).

Regarding `C[C@H]1CC[C@H](C)N2CN1C(=O)c1c(O)c(=O)c(C(=O)NCc3c(F)cc(F)cc3F)cn12` [Example C28, (1S,2S,5S)-8-hydroxy-2,5-dimethyl-7,9-dioxo-N-(2,4,6-trifluorobenzyl)-2,3,4,5,7,9-hexahydro-1,6-methanopyrido[1,2-b][1,2,5]triazonine-10-carboxamide], the CC50 in data set [1] came out at 6870 nM. For the same compound, the EC50 in data set [2] stood at 1.4 nM; in data set [3] (setting [7]) it was 319 nM; in data set [3] (setting [8]), 0.33 nM.

Take `C[C@@H]1CC(F)(F)[C@H](C)N2CN1n1cc(C(=O)NCc3c(F)cc(F)cc3F)c(=O)c(O)c1C2=O` [Example C35, (1S,2R,5S)-4,4-difluoro-8-hydroxy-2,5-dimethyl-7,9-dioxo-N-(2,4,6-trifluorobenzyl)-2,3,4,5,7,9-hexahydro-1,6-methanopyrido[1,2-b][1,2,5]triazonine-10-carboxamide]: the 50% cytotoxic concentration (CC50) in data set [1] worked out at 29900 nM. Besides, the EC50 in data set [2] worked out at 1.6 nM; in data set [3] (setting [4]), 188 nM; in data set [3] (setting [5]) it was 1.3 nM.

As to `C[C@H]1CCCCN2CN1n1cc(C(=O)NCc3ccc(F)cc3F)c(=O)c(O)c1C2=O` [Example C40, (1S,2S)—N-(2,4-difluorobenzyl)-9-hydroxy-2-methyl-8,10-dioxo-3,4,5,6,8,10-hexahydro-2H-1,7-methanopyrido[1,2-b][1,2,5]triazecine-11-carboxamide], the cytotoxic concentration (CC50) in data set [1] came out at 16000 nM. Besides, the EC50 was found to be 2.1 nM in data set [2], 139 nM in data set [3] (setting [4]) and 1.3 nM in data set [3] (setting [5]).

`C[C@H]1C/C=C\CN2CN1n1cc(C(=O)NCc3ccc(F)cc3F)c(=O)c(O)c1C2=O` [Example C41, (1S,2S,Z)—N-(2,4-difluorobenzyl)-9-hydroxy-2-methyl-8,10-dioxo-3,6,8,10-tetrahydro-2H-1,7-methanopyrido[1,2-b][1,2,5]triazecine-11-carboxamide]: the CC50 in data set [1] amounted to 14200 nM. Further, the EC50 in data set [2] stood at 1.2 nM; in data set [3] (setting [7]), 68.6 nM; in data set [3] (setting [8]) it was 0.71 nM.

With `C[C@H]1C/C=C\CN2CN1n1cc(C(=O)NCc3ccc(F)cc3F)c(=O)c(O)c1C2=O` [Example C43, (1R,2S,Z)—N-(2,4-difluorobenzyl)-9-hydroxy-2-methyl-8,10-dioxo-3,6,8,10-tetrahydro-2H-1,7-methanopyrido[1,2-b][1,2,5]triazecine-11-carboxamide], the CC50 in data set [1] amounted to 6110 nM. The results for the EC50 in data set [2], in data set [3] (setting [7]) and in data set [3] (setting [8]) were 5.3 nM, 544 nM and 1.68 nM, respectively.

Regarding `CO[C@@H]1C=C[C@H](C)N2CN1n1cc(C(=O)NCc3c(F)cc(F)cc3F)c(=O)c(O)c1C2=O` [Example C46, (1R,2R,5S)-8-hydroxy-2-methoxy-5-methyl-7,9-dioxo-N-(2,4,6-trifluorobenzyl)-2,5,7,9-tetrahydro-1,6-methanopyrido[1,2-b][1,2,5]triazonine-10-carboxamide], the cytotoxic concentration (CC50) in data set [1] is 27000 nM. The EC50 in data set [2] worked out at 1.6 nM; in data set [3] (setting [4]), 468 nM; in data set [3] (setting [5]) it was 0.44 nM.

For `C[C@@H]1C=C[C@H](CF)N2CN1n1cc(C(=O)NCc3ccc(F)cc3F)c(=O)c(O)c1C2=O` [Example C49a, (1S,10R,13R)—N-[(2,4-difluorophenyl)methyl]-10-(fluoromethyl)-6-hydroxy-13-methyl-5,8-dioxo-1,2,9-triazatricyclo[7.4.1.02,7]tetradeca-3,6,11-triene-4-carboxamide], the half-maximal cytotoxic concentration (CC50) in data set [1] is 11300 nM. Also, the EC50 in data set [2] is 1.2 nM; in data set [3] (setting [4]), 140 nM; in data set [3] (setting [5]), 0.64 nM.
